# Reference: patent US20230158049A1, “COMPOSITIONS AND METHODS FOR TREATING VIRUSES” (University of Virginia Patent Foundation, priority 2020, published 2023)
# Assays:
# [1] = target: 3C-like main protease (3CLpro) or Nsp5 (Severe acute respiratory syndrome coronavirus 2, UniProt P0DTD1); settings: computational screening (Wu et al.); cited from earlier work
# [2] = four patients, 100 mg twice daily or daily
SMILES,"clinical course on azithromycin before the switch to doxycycline (SARS-CoV-2; Example 4 (case 4): hospital days 1-3, with ceftriaxone)",3CLpro binding by computational screening [1],retesting for SARS-CoV-2 (SARS-CoV-2; Example 2: after 3 weeks),"clinical course (fever, symptoms) (SARS-CoV-2; Example 2: person, pulmonary sarcoidosis, doxycycline 100 mg orally twice a day for 10 days)",repeat nasopharyngeal swab testing for SARS-CoV-2 RNA (SARS-CoV-2; Example 3: on 9 May 2020),lung infiltrates on chest X-ray (SARS-CoV-2; Example 4: after 14 days of doxycycline therapy),"CRP (SARS-CoV-2; Example 4: by day 8 (CRP 13 by day 3, before doxycycline))","supplemental oxygen requirement (SARS-CoV-2; Example 4: person, doxycycline 100 mg twice daily from hospital day 4, by day 8)",overall clinical outcome of the four patients (SARS-CoV-2; [2]),progression to severe disease (SARS-CoV-2; [2]),"safety issues with use (SARS-CoV-2; four patients, standard doses for 5 to 14 days)"
CC[C@H]1OC(=O)[C@H](C)[C@@H](O[C@H]2C[C@@](C)(OC)[C@@H](O)[C@H](C)O2)[C@H](C)[C@@H](O[C@@H]2O[C@H](C)C[C@H](N(C)C)[C@H]2O)[C@](C)(O)C[C@@H](C)CN(C)[C@H](C)[C@@H](O)[C@]1(C)O [azithromycin],several days of worsening,,,,,,,,,,
C[C@H]1c2cccc(O)c2C(=O)C2=C(O)[C@]3(O)C(=O)C(C(N)=O)=C(O)[C@@H](N(C)C)[C@@H]3[C@@H](O)[C@@H]21 [doxycycline],,can bind to 3CLpro,negative,Fever resolved and they remained asymptomatic,negative,resolved,1.0,no longer required oxygen,All improved,None progressed to severe disease,No safety issues were noted
